ChEMBL document CHEMBL1136685, “Structure-activity relationship of cyclic peptide penta-c[Asp-His(6)-DPhe(7)-Arg(8)-Trp(9)-Lys]-NH(2) at the human melanocortin-1 and -4 receptors: His(6) substitution” (Bioorg Med Chem Lett, 2003)

What was measured:
Assay type in all cases: functional
Melanocortin receptor 4 = Melanocortin receptor 4 (Homo sapiens, UniProt P32245); test: Agonist activity at human melanocortin receptor (hMC4R).
[1] = molecular target: T1, Melanocyte-stimulating hormone receptor (Homo sapiens, UniProt Q01726); test: Agonist activity at human melanocortin receptor (hMC1R).
Target sequence in this assay (Q01726 whole entry): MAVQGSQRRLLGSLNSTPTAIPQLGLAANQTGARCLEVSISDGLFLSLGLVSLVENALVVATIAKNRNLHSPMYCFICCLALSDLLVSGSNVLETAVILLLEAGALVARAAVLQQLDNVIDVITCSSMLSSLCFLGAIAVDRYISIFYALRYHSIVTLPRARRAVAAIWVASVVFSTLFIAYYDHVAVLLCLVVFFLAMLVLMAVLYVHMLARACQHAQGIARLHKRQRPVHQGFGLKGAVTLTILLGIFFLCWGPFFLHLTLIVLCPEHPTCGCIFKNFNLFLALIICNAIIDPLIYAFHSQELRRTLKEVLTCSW

[2] = molecular target: T1, Melanocyte-stimulating hormone receptor; test: Agonistic activity against human melanocortin receptor (hMC1R) for cAMP accumulation at a concentration of 50 uM
Target sequence in this assay (Q01726 whole entry, looked up): as the sequence (Q01726 whole entry) above

Sequence of Melanocortin receptor 4 (P32245 whole entry): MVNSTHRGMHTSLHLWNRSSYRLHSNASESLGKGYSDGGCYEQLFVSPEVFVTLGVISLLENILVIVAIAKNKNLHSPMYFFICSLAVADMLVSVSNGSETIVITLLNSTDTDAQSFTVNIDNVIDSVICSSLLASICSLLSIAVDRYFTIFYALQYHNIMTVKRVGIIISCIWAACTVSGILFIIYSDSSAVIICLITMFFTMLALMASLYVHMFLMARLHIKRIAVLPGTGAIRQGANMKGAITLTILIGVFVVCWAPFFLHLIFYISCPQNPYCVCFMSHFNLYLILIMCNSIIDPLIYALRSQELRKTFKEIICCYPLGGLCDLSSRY

Structure (SMILES) | EC50 (Melanocortin receptor 4) [µM] | EC50 [1] [µM] | cAMP accumulation [2] [%]
CCCCC(=O)N[C@H]1CC(=O)NCCCC[C@@H](C(N)=O)NC(=O)[C@H](Cc2c[nH]c3ccccc23)NC(=O)[C@H](CCCN=C(N)N)NC(=O)[C@@H](Cc2ccccc2)NC(=O)[C@@]2(CCc3c(CC)cccc3C2)NC1=O | 0.008 | 0.42 | 
CCCCC(=O)N[C@H]1CC(=O)NCCCC[C@@H](C(N)=O)NC(=O)[C@H](Cc2c[nH]c3ccccc23)NC(=O)[C@H](CCCN=C(N)N)NC(=O)[C@@H](Cc2ccccc2)NC(=O)[C@@H]2Cc3ccccc3CN2C1=O | 0.003 | 0.005 | 
CCCC[C@H](NC(C)=O)C(=O)N[C@H]1CC(=O)NCCCC[C@@H](C(N)=O)NC(=O)[C@H](Cc2c[nH]c3ccccc23)NC(=O)[C@H](CCCN=C(N)N)NC(=O)[C@@H](Cc2ccccc2)NC(=O)[C@H](CCC(N)=O)NC1=O | 0.0003 | 0.0003 | 
CCCCC(=O)N[C@H]1CC(=O)NCCCC[C@@H](C(N)=O)NC(=O)[C@H](Cc2c[nH]c3ccccc23)NC(=O)[C@H](CCCNC(=N)N)NC(=O)[C@@H](Cc2ccccc2)NC(=O)C2(Cc3ccccc3C2)NC1=O | 0.065 | 0.37 | 
CCCCC(=O)N[C@H]1CC(=O)NCCCC[C@@H](C(N)=O)NC(=O)[C@H](Cc2c[nH]c3ccccc23)NC(=O)[C@H](CCCN=C(N)N)NC(=O)[C@@H](Cc2ccccc2)NC(=O)[C@H](Cc2ccc(C(F)(F)F)cc2)NC1=O | 0.002 | 0.012 | 
CCCCC(=O)N[C@H]1CC(=O)NCCCC[C@@H](C(N)=O)NC(=O)[C@H](Cc2c[nH]c3ccccc23)NC(=O)[C@H](CCCN=C(N)N)NC(=O)[C@@H](Cc2ccccc2)NC(=O)C2(CCc3cc(Br)ccc3C2)NC1=O (mixture of isomers) | 0.037 |  | 
CCCCC(=O)N[C@H]1CC(=O)NCCCC[C@@H](C(N)=O)NC(=O)[C@H](Cc2c[nH]c3ccccc23)NC(=O)[C@H](CCCN=C(N)N)NC(=O)[C@@H](Cc2ccccc2)NC(=O)[C@@]2(CCc3c(cccc3OC)C2)NC1=O (mixture of isomers) | 0.005 | 0.735 | 
CCCCC(=O)N[C@H]1CC(=O)NCCCC[C@@H](C(N)=O)NC(=O)[C@H](Cc2c[nH]c3ccccc23)NC(=O)[C@H](CCCN=C(N)N)NC(=O)[C@@H](Cc2ccccc2)NC(=O)[C@@]2(CCc3ccccc3C2)NC1=O (mixture of isomers) | 0.065 | 0.9 | 
CCCCC(=O)N[C@H]1CC(=O)NCCCC[C@@H](C(N)=O)NC(=O)[C@H](Cc2c[nH]c3ccccc23)NC(=O)[C@H](CCCN=C(N)N)NC(=O)[C@@H](Cc2ccccc2)NC(=O)C2(CCc3cc(Cl)ccc3C2)NC1=O (mixture of isomers) | 0.033 |  | 
CCCCC(=O)N[C@H]1CC(=O)NCCCC[C@@H](C(N)=O)NC(=O)[C@H](Cc2c[nH]c3ccccc23)NC(=O)[C@H](CCCNC(=N)N)NC(=O)[C@@H](Cc2ccccc2)NC(=O)C2(CCc3c(cccc3C(C)C)C2)NC1=O (mixture of isomers) | 0.007 | 0.48 | 
CCCCC(=O)N[C@H]1CC(=O)NCCCC[C@@H](C(N)=O)NC(=O)[C@H](Cc2c[nH]c3ccccc23)NC(=O)[C@H](CCCN=C(N)N)NC(=O)[C@@H](Cc2ccccc2)NC(=O)C2(CCc3c(cccc3N(C)C)C2)NC1=O (mixture of isomers) | 0.045 | 0.48 | 
CCCCC(=O)N[C@H]1CC(=O)NCCCC[C@@H](C(N)=O)NC(=O)[C@H](Cc2c[nH]c3ccccc23)NC(=O)[C@H](CCCN=C(N)N)NC(=O)[C@@H](Cc2ccccc2)NC(=O)C2(CCc3cccc(Br)c3C2)NC1=O (mixture of isomers) | 0.176 |  | 
CCCCC(=O)N[C@H]1CC(=O)NCCCC[C@@H](C(N)=O)NC(=O)[C@H](Cc2c[nH]c3ccccc23)NC(=O)[C@H](CCCNC(=N)N)NC(=O)[C@@H](Cc2ccccc2)NC(=O)C2(CCc3ccc(Br)cc3C2)NC1=O (mixture of isomers) | 0.01 | 0.14 | 
CCCCC(=O)N[C@H]1CC(=O)NCCCC[C@@H](C(N)=O)NC(=O)[C@H](Cc2c[nH]c3ccccc23)NC(=O)[C@H](CCCN=C(N)N)NC(=O)[C@@H](Cc2ccccc2)NC(=O)C2(CCc3c(Cl)cccc3C2)NC1=O (mixture of isomers) | 0.009 |  | 
CCCCC(=O)N[C@H]1CC(=O)NCCCC[C@@H](C(N)=O)NC(=O)[C@H](Cc2c[nH]c3ccccc23)NC(=O)[C@H](CCCN=C(N)N)NC(=O)[C@@H](Cc2ccccc2)NC(=O)C2(CCc3c(cccc3OC(C)C)C2)NC1=O (mixture of isomers) | 0.007 | 1.33 | 
CCCCC(=O)N[C@H]1CC(=O)NCCCC[C@@H](C(N)=O)NC(=O)[C@H](Cc2c[nH]c3ccccc23)NC(=O)[C@H](CCCNC(=N)N)NC(=O)[C@@H](Cc2ccccc2)NC(=O)C2(CCc3c(cccc3OCC)C2)NC1=O (mixture of isomers) | 0.035 | 1.27 | 
CCCCC(=O)N[C@@H]1CC(=O)NCCCC[C@@H](C(N)=O)NC(=O)[C@H](Cc2c[nH]c3ccccc23)NC(=O)[C@@H](CCCN=C(N)N)NC(=O)[C@H](Cc2ccccc2)NC(=O)C2(CCc3c(Cl)cccc3C2)NC1=O (mixture of isomers) |  |  | 30
CCCCC(=O)N[C@@H]1CC(=O)NCCCC[C@@H](C(N)=O)NC(=O)[C@H](Cc2c[nH]c3ccccc23)NC(=O)[C@@H](CCCN=C(N)N)NC(=O)[C@H](Cc2ccccc2)NC(=O)C2(CCc3cc(Br)ccc3C2)NC1=O (mixture of isomers) |  |  | 60
CCCCC(=O)N[C@@H]1CC(=O)NCCCC[C@@H](C(N)=O)NC(=O)[C@H](Cc2c[nH]c3ccccc23)NC(=O)[C@@H](CCCN=C(N)N)NC(=O)[C@H](Cc2ccccc2)NC(=O)C2(CCc3cc(Cl)ccc3C2)NC1=O (mixture of isomers) |  |  | 50
CCCCC(=O)N[C@@H]1CC(=O)NCCCC[C@@H](C(N)=O)NC(=O)[C@H](Cc2c[nH]c3ccccc23)NC(=O)[C@@H](CCCN=C(N)N)NC(=O)[C@H](Cc2ccccc2)NC(=O)C2(CCc3cccc(Br)c3C2)NC1=O (mixture of isomers) |  |  | 60
CCCCC(=O)N[C@H]1CC(=O)NCCCC[C@@H](C(N)=O)NC(=O)[C@H](Cc2c[nH]c3ccccc23)NC(=O)[C@H](CCCN=C(N)N)NC(=O)[C@@H](Cc2ccccc2)NC(=O)C2(CCc3c(Br)cccc3C2)NC1=O (single isomer, unassigned; form 1) | 0.015 |  | 
CCCCC(=O)N[C@@H]1CC(=O)NCCCC[C@@H](C(N)=O)NC(=O)[C@H](Cc2c[nH]c3ccccc23)NC(=O)[C@@H](CCCN=C(N)N)NC(=O)[C@H](Cc2ccccc2)NC(=O)C2(CCc3c(Br)cccc3C2)NC1=O (single isomer, unassigned; form 1) |  |  | 80
CCCCC(=O)N[C@H]1CC(=O)NCCCC[C@@H](C(N)=O)NC(=O)[C@H](Cc2c[nH]c3ccccc23)NC(=O)[C@H](CCCN=C(N)N)NC(=O)[C@@H](Cc2ccccc2)NC(=O)[C@@H]2c3ccccc3CN2C1=O (single isomer, unassigned; form 2) | 0.002 | 0.003 | 
CCCCC(=O)N[C@H]1CC(=O)NCCCC[C@@H](C(N)=O)NC(=O)[C@H](Cc2c[nH]c3ccccc23)NC(=O)[C@H](CCCN=C(N)N)NC(=O)[C@@H](Cc2ccccc2)NC(=O)C2(CCc3c(Br)cccc3C2)NC1=O (single isomer, unassigned; form 2) | 0.041 |  | 
CCCCC(=O)N[C@@H]1CC(=O)NCCCC[C@@H](C(N)=O)NC(=O)[C@H](Cc2c[nH]c3ccccc23)NC(=O)[C@@H](CCCN=C(N)N)NC(=O)[C@H](Cc2ccccc2)NC(=O)C2(CCc3c(Br)cccc3C2)NC1=O (single isomer, unassigned; form 2) |  |  | 70
